Our source for the EC50 values is patent US20120016119A1, “NOVEL PYRROLO(2,3-d)PYRIMIDINE COMPOUND” (priority 2009, published 2012).

Bounds are passed on as bounds.

For the assay, the target named is T1, human GPR119 (Homo sapiens, UniProt Q8TDV5).
T1 construct: expressed in transfected cells; host or cells: CHO cells (LM-3 mock cells carrying luciferase reporter pLG3-CRE6-CRE-VIP); resulting line L8-18
T1 sequence (Q8TDV5 1-335): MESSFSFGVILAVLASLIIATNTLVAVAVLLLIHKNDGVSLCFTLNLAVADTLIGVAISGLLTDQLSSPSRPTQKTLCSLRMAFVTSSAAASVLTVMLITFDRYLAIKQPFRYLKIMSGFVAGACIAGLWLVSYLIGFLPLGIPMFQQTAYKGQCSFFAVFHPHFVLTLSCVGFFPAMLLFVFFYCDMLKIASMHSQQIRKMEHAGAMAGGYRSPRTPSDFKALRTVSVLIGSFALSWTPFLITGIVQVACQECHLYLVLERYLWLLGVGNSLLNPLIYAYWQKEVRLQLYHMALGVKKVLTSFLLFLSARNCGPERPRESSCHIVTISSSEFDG
Put plainly: GPR119 agonistic activity: cAMP production in human GPR119-expressed CHO cells (HTRF cAMP kit). The format is cell-based. The settings on record: human GPR119-expressed CHO cells (L8-18), 37° C. for 30 minutes, 500 μM IBMX. The protocol:
The present experiment is directed to evaluate GPR119 agonistic activity (in vitro) of test compounds by adding the compounds to human GPR119-expressed CHO cells to determine cAMP production of the cells.
Human GPR119-expressed CHO cells (L8-18) were prepared by introducing an expression vector pMSF1-GPR119 (Geneticin-resistance) carrying human GPR119 genes into CHO cells (LM-3; Mock cells) wherein lusiferase expression vector pLG3-CRE6-CRE-VIP (Hygromycin B-resistance) were introduced according to the known method (The Journal of Biological Chemistry Vol. 274 (34), pp. 23940-23947).
Cryopreserved L8-18 cells were melted, and then suspended into 9-fold amounts of assay buffer and centrifuged (1000 rpm, 5 minutes) at room temperature. The supernatant was removed, and then the precipitated cells were resuspended into assay buffer (4 mL). Thereto was added assay buffer which contained IBMX (manufactured by Sigma, #17018-1G), and 7.5×10^4 cells/mL of cell suspension was prepared. The cell suspension was let stand at room temperature for 15 minutes, and then to each well of 96 half well white plate (manufactured by Corning Incorporated, #3693) were added the cell suspension (20 μL) and a solution of a test compound or AR231453 (5 μL; a total of 25 (final concentration: 1500 cells/well, 500 μM IBMX, 1% dimethylsulfoxide). The mixture was incubated at 37° C. for 30 minutes, and then to each well were added a 20-fold diluted solution (each 12.5 μL/well) of cAMP-d2 and Anti cAMP-Cryptate of HTRF cAMP kit (manufactured by Cisbio, #62AM4PEC). The mixture was stirred, and then was let stand for 1 hour under light shielding. A fluorescence intensity was measured by time-resolved fluorescence mode (Ex: 320 nm, Em: 665 nm, 620 nm) of Microplate Reader (ARVO or SpectraMax M5e). In ARVO, Ratios [Ratio=(665 nm/620 nm)×10^4)] of cAMP-d2 to Anti cAMP-Cryptate were calculated from the resulting fluorescence intensity, and cAMP concentrations of each well were calculated from cAMP standard curve prepared by the Ratios and GraphPad Prism. In SpectraMax M5e, cAMP concentrations of each well were calculated on the basis of a standard curve prepared by the resulting fluorescence intensity and Softmax Pro.
EC50 of test compounds were calculated by GraphPad Prism.
Broadly, the EC50 is the concentration that produces a half-maximal response. Low values mean greater potency, high ones weaker potency. The compound `CC(C)(C)OC(=O)N1CCC(n2cc(F)c3c(Nc4ccc(-n5cncn5)cc4F)ncnc32)CC1` [Example Compound 15] yielded an EC50 of under 1 µM.
In the case of `CC(C)(C)OC(=O)N1CCC(n2cc(F)c3c(Nc4ccc(S(C)(=O)=O)cc4Cl)ncnc32)CC1` [Example Compound 13] it was under 1 µM; in that of `CCc1cnc(N2CCC(n3cc(F)c4c(Nc5cc(F)c(C(=O)N(C)CCO)cc5F)ncnc43)CC2)nc1` [Example Compound 164], under 1 µM.
`CN(CCCO)C(=O)c1ccc(Nc2ncnc3c2c(F)cn3C2CCN(c3ncc(C4CC4)cn3)CC2)c(F)c1` [Example Compound 138] gave an EC50 of under 1 µM.
With `CN(C)C(=O)c1ccc(Nc2ncnc3c2c(F)cn3C2CCN(c3ncc(C(F)(F)F)cn3)CC2)c(F)c1` [Example Compound 54] the figure was under 1 µM; with `CN(CCCO)C(=O)c1ccc(Nc2ncnc3c2c(F)cn3C2CCN(c3noc(C(F)(F)F)n3)CC2)c(F)c1` [Example Compound 184], under 1 µM; with `CN(C)C(=O)c1ccc(Nc2ncnc3c2c(F)cn3C2CCN(C(=O)OC(C)(C)C)CC2)c(F)c1` [Example Compound 1, tert-butyl 4-[4-(4-dimethylcarbamoyl-2-fluorophenylamino)-5-fluoropyrrolo[2,3-d]pyrimidin-7-yl]piperidine-1-carboxylate], under 1 µM.
`CN(CCO)C(=O)c1ccc(Nc2ncnc3c2c(F)cn3C2CCN(c3ncc(OC(F)F)cn3)CC2)c(F)c1` [Example Compound 193] showed an EC50 of under 1 µM.
In the case of `CCc1cnc(N2CCC(n3cc(F)c4c(Nc5ccc(S(C)(=O)=O)cc5F)ncnc43)CC2)nc1` [Example Compound 77] it was under 1 µM.
As to `CC(C)(C)OC(=O)N1CCC(n2cc(F)c3c(Oc4ccc(S(C)(=O)=O)cc4F)ncnc32)CC1` [Example Compound 3, tert-butyl 4-[5-fluoro-4-(2-fluoro-4-mesylphenoxy)pyrrolo[2,3-d]pyrimidin-7-yl]piperidine-1-carboxylate], the EC50 was under 1 µM.
Compound `CC(C)Oc1cnc(N2CCC(n3cc(F)c4c(Nc5ccc(C(=O)N(C)C)cc5F)ncnc43)CC2)nc1` [Example Compound 56] showed an EC50 of under 1 µM.
`CC(C)c1noc(N2CCC(n3cc(F)c4c(Nc5ccc(C(=O)N(C)C)cc5Cl)ncnc43)CC2)n1` [Example Compound 21] yielded an EC50 of under 1 µM.
`CN(C)C(=O)c1ccc(Nc2ncnc3c2c(F)cn3C2CCN(C(=O)OC(C)(C)C)CC2)c(Cl)c1` [Example Compound 17] came in with an EC50 of under 1 µM.
Compound `CC(C)OC(=O)N1CCC(n2cc(Cl)c3c(Nc4ncc(C(=O)N(C)C)cc4Cl)ncnc32)CC1` [Example Compound 2, isopropyl 4-[5-chloro-4-(3-chloro-5-dimethylcarbamoylpyridin-2-ylamino)pyrrolo[2,3-d]pyrimidin-7-yl]piperidine-1-carboxylate] showed an EC50 of 1 to 3 µM.
